We go through three compounds from patent US20040106678A1, “Compositions for the parenteral administration of calcium and magnesium” (priority 2002, published 2004).

The conditions of data set [1]: saturated aqueous solution at 20° C.; cited from earlier work.
The conditions of data set [2]: parenteral administration; cited from earlier work.
Another data set in a line: pH of aqueous solution. Type of data set: physicochemical.
The nature of data set [3]: toxicity / tolerability on parenteral use. Conditions: anion is a naturally occurring mammalian metabolite.
Data set [4] is described as follows: stability of the powder / shelf life. The data set is classed as physicochemical.

As for “D-gluconic acid calcium salt [Calcium gluconate]”, the “pH of saturated solution” value in data set [1] is reported as 6-7.

As for `[Ca+2].[Cl-].[Cl-]` [Calcium chloride], the “venous toxicity” value in data set [2] is on record as “appreciably toxic to veins”.

In the case of “calcium 3-hydroxy-3-methylbutyrate [CaHMB]”, the “pH of saturated aqueous solution” value in the data set “pH of aqueous solution” (27% by weight saturated aqueous solution at 20° C.) is on record as “neutral or slightly alkaline”. Moreover, the “pH of aqueous solution in distilled water” value in “pH of aqueous solution” (if pure, dissolved in distilled water) is “nearly neutral or slightly alkaline”. Further, in data set [3], the “toxicity” value was “non-toxic”. For the same compound, the “powder stability / shelf life” value in data set [4] is “stable powders with long shelf lives”.
